These results are taken from US8604038B2, “Pyrrolidine derived beta 3 adrenergic receptor agonists” (Merck Sharp & Dohme Corp., priority 2009, dated 2013).

Structures are written as SMILES.

The subject of one experiment is rats. The settings on record: intravenous administration, cited from earlier work.
The target in experiment [1] is T1, human β3 adrenergic receptor (Homo sapiens, UniProt P13945).
T1 construct: expressed in transfected cells; host or cells: CHO (Chinese hamster ovary) cells, stably transfected
T1 sequence (P13945 whole entry): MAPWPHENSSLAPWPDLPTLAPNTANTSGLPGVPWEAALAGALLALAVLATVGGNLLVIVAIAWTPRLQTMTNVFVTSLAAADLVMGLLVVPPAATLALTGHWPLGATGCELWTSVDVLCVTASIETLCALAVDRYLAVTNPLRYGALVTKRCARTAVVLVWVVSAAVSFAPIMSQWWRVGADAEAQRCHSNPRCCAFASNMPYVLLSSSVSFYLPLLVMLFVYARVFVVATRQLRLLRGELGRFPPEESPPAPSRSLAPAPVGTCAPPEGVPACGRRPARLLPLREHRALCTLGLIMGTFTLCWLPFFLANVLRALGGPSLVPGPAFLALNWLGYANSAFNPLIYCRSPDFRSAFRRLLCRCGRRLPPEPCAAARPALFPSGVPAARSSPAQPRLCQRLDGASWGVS
Nature of the experiment: Beta-3 agonist in vitro functional assay (cAMP production, LANCE, transfected CHO cells). The settings on record: given as a range, CHO cells with cloned β3 receptor, read-out: human Beta-3 agonist functional activity. Type of experiment: cell-based.

On to `C[C@H](Cc1ccc2c(c1)OC(C(=O)[O-])(C(=O)[O-])O2)NC[C@H](O)c1cccc(Cl)c1.[Na+].[Na+]` [CL316243], for which, in the experiment with rats (cystometric studies), the bladder capacity entry is “increases bladder capacity”, the micturition interval entry is “prolongation of micturition interval” and the residual urine volume entry was “without increasing residual urine volume”. Also, the bladder pressure result in the experiment with rats is listed as “reduces bladder pressure”.
As to `CN(Cc1ccccc1F)C(=O)c1ccc(C[C@@H]2CC[C@H]([C@H](O)c3ccccc3)N2)cc1` [Example 135, N-(2-fluorobenzyl)-4-({(2S,5R)-5-[(R)-hydroxy(phenyl)methyl]pyrrolidin-2-yl}methyl)-N-methylbenzamide], the EC50 in experiment [1] lay in the range of 10 to 99.9 nM.
As to `CN(Cc1cccc(N)n1)C(=O)c1ccc(C[C@@H]2CC[C@H]([C@H](O)c3ccccc3)N2)cc1` [Example 136, N-[(6-aminopyridin-2-yl)methyl]-4-({(2S,5R)-5-[(R)-hydroxy(phenyl)methyl]pyrrolidin-2-yl}methyl)-N-methylbenzamide], the EC50 in experiment [1] was less than 1 nM.
For `CC(c1ccccn1)N(C)C(=O)c1ccc(CC2CC[C@H]([C@H](O)c3ccccc3)N2)cc1` (stereo partly shown) [Example 137], the EC50 in experiment [1] fell in the range of 100 to 999 nM.
